According to patent publication US6855730B2, “3-methylidenyl-2-indolinone modulators of protein kinase” (Sugen, Inc., priority 1998, dated 2005):

Columns and labels:
[1] = biological target: T1, human flk-1 (Homo sapiens, UniProt P35968); assay: Biochemical FLK-1 assay (flk-1 autophosphorylation ELISA); conditions: read-out: bio FLK1 IC50 (μM) % if inhibition at 100
T1 construct: host or cells: Flk-1/NIH cells (NIH fibroblasts)
Description: This assay evaluates flk-1 autophosphorylation activity in vitro using ELISA.
Materials And Reagents • 1. 15 cm tissue culture dishes • 2. Flk-1/NIH cells: NIH fibroblast line over-expressing human flk-1clone 3 (SUGEN, Inc., obtained from MPI, Martinsried, Germany). • 3. Growth medium: DMEM plus heat inactivated 10% FBS and 2 mM Glutamine (Gibco-BRL). • 4. Starvation medium: DMEM plus 0.5% heat-inactivated FBS, 2 mM Glutamine (Gibco-BRL). • 5. […] L4 or E38 monoclonal antibody specific for flk-1, Purified by Protein-A agarose affinity chromatography (SUGEN, Inc.). • 7. PBS (Dulbecco's Phosphate-Buffered Saline) Gibco Cat. No. 450-1300EB). • 8. HNTG (see BIOCHEMICAL FGFR for preparation). • 9. Pierce BCA protein determination kit. • 10. Blocking buffer • 11. TBST (pH 7.0) • 12. Kinase Buffer • 13. Kinase Stop Solution: 200 mM EDTA. • 14. […] AB kit (Vector Laboratories Cat. No. PK 4000). • 16. DMSO • 17. NUNC 96-well V bottom polypropylene plates (Applied Scientific Cat. No. AS-72092). • 18. Turbo-TMB (Pierce). • 19. Turbo-TMB stop solution: 1 M H2SO4. • 20. ATP (Sigma Cat. No. A-7699). • 21. 20% DMSO in TBS (pH 7.0). Procedure
Cell Growth and Lysate Preparation. • 1. Seed cell into growth medium and grow for 2-3 days to 90-100% confluency at 37° C. and 5% CO2.
2. Remove the medium and wash the cells twice with PBS. Lyse with HNTG lysis buffer. Collect all lysates and vortex mix them for 20-30 seconds. • 3. Remove insoluble material by centrifugation (5-10 min at about 10,000 ×g). • 4. Determine the protein concentration using BCA kit. • 5. Partition lysate into 1 mg aliquots, store at −80° C.
Assay Procedure • 1. Coat Corning 96-well ELISA plates with 2 μg/well purified L4 (or E 38) in 100 μl of PBS. Store overnight at […] • 2. Remove unbound proteins from wells by inverting the plate to remove the liquid. Wash one time with dH2O, pat plate on paper towel to remove excess liquid. • 3. Block plates with 150 μl blocking buffer per well. Incubate for 45-60 minutes with shaking at 4° C. • 4. Remove the blocking buffer and wash the ELISA plate three times with dH2O and one time with TBST. Pat plate on paper towel to remove excess liquid. • 5. Dilute lysate in PBS to give final concentration of 50 μg/100 μl. Add 100 μl of diluted lysate to each well. Incubate with shaking at 4° C. overnight. • 6. Remove unbound proteins from wells by inverting the plate. Wash as in step 4. • 7. Add 80 μl of kinase buffer to wells (90 μl to negative control wells). • 8. Dilute test compounds (normally 10-fold) into wells of a polypropylene plate containing 20% DMSO in TBS. • 9. Add 10 μl of the diluted compounds to the ELISA wells containing immobilized flk-1 and shake. Control wells receive no compounds. • 10. From stock 1 mM ATP, prepare 0.3 mM ATP solution in dH2O (alternatively, kinase buffer may be used). • 11. Add 10 μl of 0.3 mM ATP to all wells except the negative controls. Incubate for 60 min. at room temperature with shaking. • 12. After 1 hr stop the kinase reaction by adding 11 μl 200 mM EDTA. Shake for 1-2 min. • 13. Wash the ELISA plate 4 times with dH2O and twice with TBST. • 14. Add 100 μl of 1:5000 biotinylated 4G10:TBST to all wells. Incubate 45 min with shaking at room temperature. • 15. While the above is incubating, add 50 μl of solutions A & B from the ABC kit to 10 ml of TBST. These solutions must be combined approximately 30 min prior to use. • 16. Wash plates as in step 4. • 17. Add 100 μl of the preformed A & B complex to all wells. Incubate 30 min with shaking at room temperature. • 18. Wash plates as in step 4. • 19. Add 100 μl turbo-TMB. Shake at room temperature for 10-15 min. • 20. When the color in the positive control wells reaches an absorbance of about 0.35-0.4, stop the reaction with 100 μl of turbo-TMB stop solution. • 21. Read plates on Dynatech MR7000 ELISA reader, test filter: 450 nM, reference filter: 410 nM.

[2] = biological target: T2, flkGST (Homo sapiens, UniProt P35968); assay: bio flkGST assay; type: biochemical
T2 construct: GST

[3] = biological target: T3, PDGFR-β (Homo sapiens, UniProt P09619); assay: Biochemical PDGFR assay (ELISA, PDGFR-β expressing NIH 3T3 cell lysate); conditions: read-out: bio PDGF IC50
T3 construct: host or cells: NIH 3T3
How it was run: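 PDGFR-β from NIH 3T3 cell lysate captured on anti-PDGFR (28D4C10)-coated plates; compound preincubated 30 min, then 20 μM ATP kinase reaction 30 min at room temperature, stopped with EDTA. Phosphotyrosine detected by anti-phosphotyrosine antibody, peroxidase conjugate and ABTS/H2O2, read at 410 nm.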

[4] = biological target: Myc-GyrB-FGFR fusion protein (Homo sapiens, UniProt P11362); assay: Biochemical FGFR assay (ELISA); conditions: read-out: bio fgfR1 IC50
Myc-GyrB-FGFR fusion protein, sequence (P11362 478-767 limits assumed): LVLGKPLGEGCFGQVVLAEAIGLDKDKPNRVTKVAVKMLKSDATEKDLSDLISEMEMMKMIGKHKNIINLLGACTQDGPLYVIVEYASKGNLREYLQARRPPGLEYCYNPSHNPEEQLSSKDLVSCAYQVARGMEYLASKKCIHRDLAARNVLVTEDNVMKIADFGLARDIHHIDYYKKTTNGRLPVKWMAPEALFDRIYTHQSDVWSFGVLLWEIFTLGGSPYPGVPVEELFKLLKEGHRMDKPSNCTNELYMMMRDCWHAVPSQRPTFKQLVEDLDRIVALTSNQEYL

T3 sequence (P09619 33-1106): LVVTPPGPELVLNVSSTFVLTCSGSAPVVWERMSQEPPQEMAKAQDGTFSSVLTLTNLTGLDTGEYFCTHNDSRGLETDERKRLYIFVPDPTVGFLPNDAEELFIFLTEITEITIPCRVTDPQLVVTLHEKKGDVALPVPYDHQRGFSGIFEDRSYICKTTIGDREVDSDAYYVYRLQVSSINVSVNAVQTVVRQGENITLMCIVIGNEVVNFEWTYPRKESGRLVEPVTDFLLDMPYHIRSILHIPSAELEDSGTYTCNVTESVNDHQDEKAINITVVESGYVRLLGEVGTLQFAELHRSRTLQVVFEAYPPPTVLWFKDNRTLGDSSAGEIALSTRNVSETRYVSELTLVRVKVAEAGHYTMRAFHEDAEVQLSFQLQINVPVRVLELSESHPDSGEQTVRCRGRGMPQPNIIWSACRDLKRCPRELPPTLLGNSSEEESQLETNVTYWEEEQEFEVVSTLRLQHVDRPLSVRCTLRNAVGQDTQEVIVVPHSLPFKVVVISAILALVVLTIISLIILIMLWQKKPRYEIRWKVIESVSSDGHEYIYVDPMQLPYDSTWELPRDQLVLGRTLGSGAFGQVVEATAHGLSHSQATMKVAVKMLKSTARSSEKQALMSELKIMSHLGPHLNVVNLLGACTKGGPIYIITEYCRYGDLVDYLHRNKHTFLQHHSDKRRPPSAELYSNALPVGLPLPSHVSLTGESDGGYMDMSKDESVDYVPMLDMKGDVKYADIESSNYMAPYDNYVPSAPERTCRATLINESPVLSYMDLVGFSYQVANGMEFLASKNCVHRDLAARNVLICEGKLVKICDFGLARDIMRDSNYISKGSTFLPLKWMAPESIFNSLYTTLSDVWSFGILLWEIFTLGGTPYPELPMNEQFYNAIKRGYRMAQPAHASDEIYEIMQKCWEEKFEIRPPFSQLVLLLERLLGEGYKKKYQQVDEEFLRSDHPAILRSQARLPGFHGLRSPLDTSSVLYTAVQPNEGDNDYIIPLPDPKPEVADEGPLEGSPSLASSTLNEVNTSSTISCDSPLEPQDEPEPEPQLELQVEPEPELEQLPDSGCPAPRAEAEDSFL
T2 sequence (P35968 786-1356 limits assumed): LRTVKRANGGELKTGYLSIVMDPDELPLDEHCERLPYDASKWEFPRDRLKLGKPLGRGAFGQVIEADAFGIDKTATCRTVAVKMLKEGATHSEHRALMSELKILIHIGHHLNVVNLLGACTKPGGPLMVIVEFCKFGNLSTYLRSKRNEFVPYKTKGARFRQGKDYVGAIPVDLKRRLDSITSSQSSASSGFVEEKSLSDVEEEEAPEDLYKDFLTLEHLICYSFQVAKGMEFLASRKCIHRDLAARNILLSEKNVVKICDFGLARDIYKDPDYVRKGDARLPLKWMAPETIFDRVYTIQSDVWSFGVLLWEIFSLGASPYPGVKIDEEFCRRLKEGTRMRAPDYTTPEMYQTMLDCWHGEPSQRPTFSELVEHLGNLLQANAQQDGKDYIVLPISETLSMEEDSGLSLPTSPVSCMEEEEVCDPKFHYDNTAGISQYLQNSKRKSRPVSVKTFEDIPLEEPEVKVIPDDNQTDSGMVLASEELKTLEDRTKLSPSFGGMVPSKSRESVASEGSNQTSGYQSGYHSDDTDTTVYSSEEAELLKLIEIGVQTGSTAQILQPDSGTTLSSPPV
T1 sequence (P35968 20-1356): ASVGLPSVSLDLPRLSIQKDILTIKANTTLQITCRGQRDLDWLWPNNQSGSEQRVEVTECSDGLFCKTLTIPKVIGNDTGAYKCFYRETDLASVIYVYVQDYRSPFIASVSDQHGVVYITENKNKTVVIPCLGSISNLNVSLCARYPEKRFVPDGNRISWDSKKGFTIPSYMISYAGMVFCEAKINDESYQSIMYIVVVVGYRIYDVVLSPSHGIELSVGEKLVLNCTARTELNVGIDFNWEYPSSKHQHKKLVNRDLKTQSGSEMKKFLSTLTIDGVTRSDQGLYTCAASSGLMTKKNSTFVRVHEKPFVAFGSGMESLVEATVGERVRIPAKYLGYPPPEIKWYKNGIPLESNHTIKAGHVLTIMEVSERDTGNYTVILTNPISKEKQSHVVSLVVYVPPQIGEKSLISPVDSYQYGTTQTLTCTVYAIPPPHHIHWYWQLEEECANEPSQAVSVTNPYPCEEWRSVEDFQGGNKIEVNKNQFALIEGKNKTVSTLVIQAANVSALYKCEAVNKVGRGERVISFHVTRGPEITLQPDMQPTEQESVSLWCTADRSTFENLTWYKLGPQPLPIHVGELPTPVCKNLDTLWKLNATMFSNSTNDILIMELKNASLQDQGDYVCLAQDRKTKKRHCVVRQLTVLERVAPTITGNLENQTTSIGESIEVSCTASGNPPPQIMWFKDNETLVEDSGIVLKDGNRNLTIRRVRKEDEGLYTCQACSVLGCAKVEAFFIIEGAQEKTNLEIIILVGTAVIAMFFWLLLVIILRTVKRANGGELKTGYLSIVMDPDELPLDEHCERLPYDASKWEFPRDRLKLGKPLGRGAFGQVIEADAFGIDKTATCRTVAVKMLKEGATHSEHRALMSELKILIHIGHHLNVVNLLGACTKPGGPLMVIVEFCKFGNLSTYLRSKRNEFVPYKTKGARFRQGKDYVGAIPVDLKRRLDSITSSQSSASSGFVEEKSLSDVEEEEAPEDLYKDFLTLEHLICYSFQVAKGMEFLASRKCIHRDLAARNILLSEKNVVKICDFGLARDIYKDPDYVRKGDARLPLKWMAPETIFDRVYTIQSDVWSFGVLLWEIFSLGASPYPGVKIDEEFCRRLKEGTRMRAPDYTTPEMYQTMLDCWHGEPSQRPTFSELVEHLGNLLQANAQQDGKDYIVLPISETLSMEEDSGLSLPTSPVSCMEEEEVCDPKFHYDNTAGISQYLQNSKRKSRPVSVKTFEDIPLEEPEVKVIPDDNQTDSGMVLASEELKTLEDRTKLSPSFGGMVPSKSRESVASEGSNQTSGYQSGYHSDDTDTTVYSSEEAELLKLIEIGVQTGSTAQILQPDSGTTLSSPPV

| SMILES | IC50 [1] [µM] | IC50 [2] [µM] | IC50 [3] [µM] | IC50 [4] [µM] |
| --- | --- | --- | --- | --- |
| Nc1ccc2c(c1)/C(=C/c1cc3ccccc3[nH]1)C(=O)N2 [Example 160, 5-Amino-3-(1H-indol-2-ylmethylene)-1,3-dihydro-indol-2-one] | 1.53 | 0.12 | 2.72 | 5.27 |
| O=C1Nc2ccc(C(=O)O)cc2/C1=C/c1cc2ccccc2[nH]1 [Example 161, 3-(-1H-Indol-2-ylmethylene)-2-oxo-2,3-dihydro-1H-indole-5-carboxylic acid] | 2.1 | < 0.008 | 25.1 | > 20 |
| Cc1c(/C=C2\C(=O)Nc3ccc(Br)cc32)[nH]c2ccccc12 [Example 169, 5-bromo-3-(3-methyl-1H-indol-2-ylmethylene)-1,3-dihydro-indol-2-one] | 15.8 |  | > 100 | > 20 |
| Cc1cccc2c1/C(=C/c1[nH]c3ccccc3c1C)C(=O)N2 [Example 170, 4-Methyl-3-(3-methyl-1H-indol-2-ylmethylene)-1,3-dihydroindol-2-one] | 10.7 |  | > 100 | > 20 |
| COc1ccccc1-c1ccc2c(c1)NC(=O)/C2=C\c1[nH]c2c(c1CCC(=O)O)CCCC2 [Example 207, 3-{2-[6-(2-Methoxyphenyl)-2-oxo-1,2-dihydro-indol-3-ylidenemethyl]-4,5,6,7-tetrahydro-1H-indol-3-yl}-propionic acid] | 2.72 | 1.5 | 0.87 | 7.7 |
